{"source": "patent US20100041089A1", "about": "“IMPROVED METHOD FOR DETECTING CHEMICAL […]” (priority 2006, published 2010)", "test_system": "yeast genes (expressed mRNA)", "assay": "DNA chip measurement of expressed mRNA of yeast genes after culture with a toxic chemical substance", "type": "cell-based, Saccharomyces cerevisiae S288C", "summary_of_the_method": "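Fluorescence ratio, treated over untreated, read by chip scanner; ratio of two or more counted significant. Cells: S288C yeast, YPD, 25° C, chemical added at log phase for 2 h at growth-inhibiting, sublethal level. Cy3/Cy5-labeled cDNA from oligo-dT-purified mRNA.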", "data": [{"smiles": "C=CC=O", "note": "[(14), Acrolein]", "values": [{"measurement": "The level of expressed mRNA in the presence of chemical substance/The level of expressed mRNA in the absence of chemical substance", "setting": "yeast gene YMR316W, cultured two hours with substance", "value": 1.3}, {"measurement": "The level of expressed mRNA in the presence of chemical substance/The level of expressed mRNA in the absence of chemical substance", "setting": "yeast gene YNL036W", "value": 5.1}, {"measurement": "The level of expressed mRNA in the presence of chemical substance/The level of expressed mRNA in the absence of chemical substance", "setting": "yeast gene YNL044W, cultured two hours with substance", "value": 1.2}, {"measurement": "The level of expressed mRNA in the presence of chemical substance/The level of expressed mRNA in the absence of chemical substance", "setting": "yeast gene YNL074C, cultured two hours with substance", "value": 0.6}, {"measurement": "The level of expressed mRNA in the presence of chemical substance/The level of expressed mRNA in the absence of chemical substance", "setting": "yeast gene YNL092W, cultured two hours with substance", "value": 1.2}, {"measurement": "The level of expressed mRNA in the presence of chemical substance/The level of expressed mRNA in the absence of chemical substance", "setting": "yeast gene YNL115C, cultured two hours with substance", "value": 1.0}, {"measurement": "The level of expressed mRNA in the presence of chemical substance/The level of expressed mRNA in the absence of chemical substance", "setting": "yeast gene YNL155W, cultured two hours with substance", "value": 2.1}, {"measurement": "The level of expressed mRNA in the presence of chemical substance/The level of expressed mRNA in the absence of chemical substance", "setting": "yeast gene YNL156C, cultured two hours with substance", "value": 1.4}, {"measurement": "The level of expressed mRNA in the presence of chemical substance/The level of expressed mRNA in the absence of chemical substance", "setting": "yeast gene YNL190W, cultured two hours with substance", "value": 0.6}, {"measurement": "The level of expressed mRNA in the presence of chemical substance/The level of expressed mRNA in the absence of chemical substance", "setting": "yeast gene YNL195C, cultured two hours with the chemical substance", "value": 1.5}, {"measurement": "The level of expressed mRNA in the presence of chemical substance/The level of expressed mRNA in the absence of chemical substance", "setting": "yeast gene YNL208W, cultured two hours with substance", "value": 1.0}, {"measurement": "The level of expressed mRNA in the presence of chemical substance/The level of expressed mRNA in the absence of chemical substance", "setting": "yeast gene YNL234W, cultured two hours with substance", "value": 1.5}, {"measurement": "The level of expressed mRNA in the presence of chemical substance/The level of expressed mRNA in the absence of chemical substance", "setting": "yeast gene YNL281W, cultured two hours with substance", "value": 1.2}, {"measurement": "The level of expressed mRNA in the presence of chemical substance/The level of expressed mRNA in the absence of chemical substance", "setting": "yeast gene YNL300W, cultured two hours with substance", "value": 0.8}, {"measurement": "The level of expressed mRNA in the presence of chemical substance/The level of expressed mRNA in the absence of chemical substance", "setting": "yeast gene YNL305C, cultured two hours with substance", "value": 1.3}, {"measurement": "The level of expressed mRNA in the presence of chemical substance/The level of expressed mRNA in the absence of chemical substance", "setting": "yeast gene YNL335W", "value": 4.6}, {"measurement": "The level of expressed mRNA in the presence of chemical substance/The level of expressed mRNA in the absence of chemical substance", "setting": "yeast gene YNR064C, cultured two hours with substance", "value": 0.8}, {"measurement": "The level of expressed mRNA in the presence of chemical substance/The level of expressed mRNA in the absence of chemical substance", "setting": "yeast gene YNR068C, cultured two hours with substance", "value": 1.8}, {"measurement": "The level of expressed mRNA in the presence of chemical substance/The level of expressed mRNA in the absence of chemical substance", "setting": "yeast gene YOL032W, cultured two hours with substance", "value": 1.3}, {"measurement": "The level of expressed mRNA in the presence of chemical substance/The level of expressed mRNA in the absence of chemical substance", "setting": "yeast gene YOL036W, cultured two hours with substance", "value": 1.0}, {"measurement": "The level of expressed mRNA in the presence of chemical substance/The level of expressed mRNA in the absence of chemical substance", "setting": "yeast gene YOL047C, cultured two hours with substance", "value": 1.2}, {"measurement": "The level of expressed mRNA in the presence of chemical substance/The level of expressed mRNA in the absence of chemical substance", "setting": "yeast gene YOL071W, cultured two hours with substance", "value": 2.5}, {"measurement": "The level of expressed mRNA in the presence of chemical substance/The level of expressed mRNA in the absence of chemical substance", "setting": "yeast gene YOL082W, cultured two hours with substance", "value": 1.4}, {"measurement": "The level of expressed mRNA in the presence of chemical substance/The level of expressed mRNA in the absence of chemical substance", "setting": "yeast gene YOL083W, cultured two hours with substance", "value": 1.4}, {"measurement": "The level of expressed mRNA in the presence of chemical substance/The level of expressed mRNA in the absence of chemical substance", "setting": "yeast gene YOL117W, cultured two hours with substance", "value": 1.7}, {"measurement": "The level of expressed mRNA in the presence of chemical substance/The level of expressed mRNA in the absence of chemical substance", "setting": "yeast gene YOL131W, cultured two hours with substance", "value": 2.3}, {"measurement": "The level of expressed mRNA in the presence of chemical substance/The level of expressed mRNA in the absence of chemical substance", "setting": "yeast gene YOL150C, cultured two hours with substance", "value": 5.7}, {"measurement": "The level of expressed mRNA in the presence of chemical substance/The level of expressed mRNA in the absence of chemical substance", "setting": "yeast gene YOL162W, cultured two hours with substance", "value": 1.4}, {"measurement": "The level of expressed mRNA in the presence of chemical substance/The level of expressed mRNA in the absence of chemical substance", "setting": "yeast gene YOR019W, cultured two hours with substance", "value": 1.4}, {"measurement": "The level of expressed mRNA in the presence of chemical substance/The level of expressed mRNA in the absence of chemical substance", "setting": "yeast gene YOR049C, cultured two hours with substance", "value": 1.5}, {"measurement": "The level of expressed mRNA in the presence of chemical substance/The level of expressed mRNA in the absence of chemical substance", "setting": "yeast gene YOR197W, cultured two hours with substance", "value": 0.7}, {"measurement": "The level of expressed mRNA in the presence of chemical substance/The level of expressed mRNA in the absence of chemical substance", "setting": "yeast gene YOR248W, cultured two hours with substance", "value": 0.5}, {"measurement": "The level of expressed mRNA in the presence of chemical substance/The level of expressed mRNA in the absence of chemical substance", "setting": "yeast gene YOR338W, cultured two hours with substance", "value": 2.5}, {"measurement": "The level of expressed mRNA in the presence of chemical substance/The level of expressed mRNA in the absence of chemical substance", "setting": "yeast gene YPL052W, cultured two hours with substance", "value": 3.2}, {"measurement": "The level of expressed mRNA in the presence of chemical substance/The level of expressed mRNA in the absence of chemical substance", "setting": "yeast gene YPL087W, cultured two hours with substance", "value": 1.2}, {"measurement": "The level of expressed mRNA in the presence of chemical substance/The level of expressed mRNA in the absence of chemical substance", "setting": "yeast gene YPL171C, cultured for two hours with substance", "value": 9.3}, {"measurement": "The level of expressed mRNA in the presence of chemical substance/The level of expressed mRNA in the absence of chemical substance", "setting": "yeast gene YPL196W, cultured two hours with substance", "value": 1.6}, {"measurement": "The level of expressed mRNA in the presence of chemical substance/The level of expressed mRNA in the absence of chemical substance", "setting": "yeast gene YPL206C, cultured two hours with substance", "value": 1.1}, {"measurement": "The level of expressed mRNA in the presence of chemical substance/The level of expressed mRNA in the absence of chemical substance", "setting": "yeast gene YPL222W, cultured two hours with substance", "value": 1.1}, {"measurement": "The level of expressed mRNA in the presence of chemical substance/The level of expressed mRNA in the absence of chemical substance", "setting": "yeast gene YPR023C, cultured two hours with substance", "value": 0.9}, {"measurement": "The level of expressed mRNA in the presence of chemical substance/The level of expressed mRNA in the absence of chemical substance", "setting": "yeast gene YPR079W, cultured two hours with substance", "value": 1.3}, {"measurement": "The level of expressed mRNA in the presence of chemical substance/The level of expressed mRNA in the absence of chemical substance", "setting": "yeast gene YPR151C, cultured two hours with substance", "value": 1.4}]}]}
